Consider 2 molecules from patent publication US20240018153A1, “BENZENESULFONAMIDE DERIVATIVES AND USES THEREOF” (2692372 ONTARIO, INC., priority 2020, published 2024).

Structures are written as SMILES.

For assay [1], the target named is T1, BTK (Homo sapiens (Human), UniProt Q06187). Briefly: Ramos RA1 cell lysis and immunoassay, total BTK degradation. The class given is cell-based. Set-up: key to % BTK degradation (RAMOS, 24 h): Y: BTK bound in cells and BTK degradation occurred; concentration or dose not given beside the values. The settings on record: RAMOS cells. The gist of the method:
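Ramos RA1 cells treated with compound or DMSO for 24 h at 37° C., lysed in RIPA, analysed by Simple Western. Total BTK normalised to β-actin, pBTK (Y223) to total-protein reagent; both expressed relative to DMSO control.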

For assay [2], the target named is FGFR4 (Homo sapiens (Human), UniProt P22455). Briefly: HTRF KinEASE-TK kinase assay, FGFR4. The class given is biochemical. The conditions noted are these: for remaining activity at 1 µM: read-out: % FGFR4 Remaining activity vs DMSO (1 μM, 3 h); for remaining activity at 10 µM: read-out: % FGFR4 Remaining activity vs DMSO (10 μM, 3 h). The gist of the method:
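HTRF ratio (Em 665/620 nm) measured 60 min after EDTA stop with SA-XL665 (31.25 nM) and europium antibody reflects phosphorylated biotinylated substrate. Before substrate/ATP addition, 5.12 nM (0.333 ng/ul) FGFR4 sat with compound 3 h at room temperature.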

The target of assay [3] is JAK3 (Homo sapiens (Human), UniProt P52333). The experiment in a line: HTRF KinEASE-TK kinase assay, JAK3. The settings on record: for remaining activity at 1 µM: read-out: % JAK3 Remaining activity vs DMSO (1 μM, 3 h); for remaining activity at 10 µM: read-out: % JAK3 Remaining activity vs DMSO (10 μM, 3 h). It counts as biochemical. The gist of the method:
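HTRF read-out: the Em665/Em620 ratio, measured 60 min after stopping with EDTA, 31.25 nM SA-XL665 and 100-fold diluted Eu-antibody, was taken as phosphorylated substrate. Beforehand, 0.21 nM JAK3 (0.0133 ng/µl) sat with compound for 3 h at room temperature, then biotinylated substrate plus ATP started the reaction.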

Assay [4] has as its target T1, BTK. Briefly: HTRF KinEASE-TK kinase assay, BTK. The class given is biochemical. The conditions noted are these: 3 h preincubation; for remaining activity at 1 µM: 1 μM compound, read-out: % BTK Remaining activity vs DMSO (1 μM, 3 h); for remaining activity at 10 µM: 10 μM compound, read-out: % BTK Remaining activity vs DMSO (10 μM, 3 h); for IC50: dose response, read-out: BTK Inhibition IC50. The gist of the method:
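Read-out was the 665 nm to 620 nm ratio, taken 60 min after detection, reflecting phosphorylated biotinylated substrate. Before this, BTK reacted 45 min with substrate and ATP in kinase buffer supplemented with MnCl2 (10 mM), MgCl2 (5 mM), ATPγS (1 uM) and TCEP (1 mM).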

Assay [5] concerns the target RIPK2 (Homo sapiens (Human), UniProt O43353). Briefly: In vitro RIPK2 inhibition. It counts as biochemical. The conditions noted are these: for remaining activity at 1 µM: read-out: % RIPK2 Remaining activity vs DMSO (1 μM, 3 h); for remaining activity at 10 µM: read-out: % RIPK2 Remaining activity vs DMSO (10 μM, 3 h).
Assay [6] addresses BMX (Homo sapiens (Human), UniProt P51813). The experiment in a line: HTRF KinEASE-TK kinase assay, BMX. The class given is biochemical. The conditions noted are these: for remaining activity at 1 µM: 1 uM compound; for remaining activity at 1 µM / remaining activity at 10 µM: 3 h preincubation; for remaining activity at 10 µM: 10 uM compound. The gist of the method: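 Phosphorylation was quantified by HTRF KinEASE-TK as the 665/620 nm ratio, read 60 min after EDTA stop with SA-XL665 (31.25 nM) and europium antibody. Before the reaction, 3.03 nM BMX was preincubated with compound for 3 hours at room temperature, and the reaction was started with biotinylated substrate plus ATP.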

In assay [7] the target is EGFR (Homo sapiens (Human), UniProt P00533). Briefly: HTRF KinEASE-TK kinase assay, EGFR. The class given is biochemical. The settings on record: 3 h preincubation; for remaining activity at 1 µM: 1 μM compound, read-out: % EGFR Remaining activity vs DMSO (1 μM, 3 h); for remaining activity at 10 µM: 10 μM compound, read-out: % EGFR Remaining activity vs DMSO (10 μM, 3 h). In a few lines:
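Buffer contained 5 mM MgCl2, 2 mM MnCl2 and 1 mM TCEP; compounds at two final concentrations, 1 and 10 uM, with 0.5% DMSO, pre-incubated with the enzyme.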

Chain of FGFR4 (P22455 22-802): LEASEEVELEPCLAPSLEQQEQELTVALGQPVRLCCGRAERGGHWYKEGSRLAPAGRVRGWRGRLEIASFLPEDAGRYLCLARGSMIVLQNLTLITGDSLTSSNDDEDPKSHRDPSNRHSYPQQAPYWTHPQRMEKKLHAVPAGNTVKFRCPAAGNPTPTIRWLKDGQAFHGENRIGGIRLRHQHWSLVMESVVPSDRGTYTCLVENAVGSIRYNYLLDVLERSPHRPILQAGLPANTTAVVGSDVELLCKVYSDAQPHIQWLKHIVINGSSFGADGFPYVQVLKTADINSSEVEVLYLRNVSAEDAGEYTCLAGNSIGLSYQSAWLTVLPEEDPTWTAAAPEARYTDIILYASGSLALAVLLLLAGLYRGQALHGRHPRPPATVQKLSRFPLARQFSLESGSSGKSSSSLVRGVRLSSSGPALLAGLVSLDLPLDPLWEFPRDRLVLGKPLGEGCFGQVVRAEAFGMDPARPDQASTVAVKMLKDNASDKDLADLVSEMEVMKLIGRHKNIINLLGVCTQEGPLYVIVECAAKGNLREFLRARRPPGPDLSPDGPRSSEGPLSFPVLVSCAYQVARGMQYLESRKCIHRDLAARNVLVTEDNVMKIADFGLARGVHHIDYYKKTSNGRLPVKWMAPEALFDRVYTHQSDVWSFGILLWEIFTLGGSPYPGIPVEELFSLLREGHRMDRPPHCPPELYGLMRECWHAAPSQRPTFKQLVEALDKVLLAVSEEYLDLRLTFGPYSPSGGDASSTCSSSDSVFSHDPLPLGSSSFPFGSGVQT
T1 sequence (Q06187 whole entry): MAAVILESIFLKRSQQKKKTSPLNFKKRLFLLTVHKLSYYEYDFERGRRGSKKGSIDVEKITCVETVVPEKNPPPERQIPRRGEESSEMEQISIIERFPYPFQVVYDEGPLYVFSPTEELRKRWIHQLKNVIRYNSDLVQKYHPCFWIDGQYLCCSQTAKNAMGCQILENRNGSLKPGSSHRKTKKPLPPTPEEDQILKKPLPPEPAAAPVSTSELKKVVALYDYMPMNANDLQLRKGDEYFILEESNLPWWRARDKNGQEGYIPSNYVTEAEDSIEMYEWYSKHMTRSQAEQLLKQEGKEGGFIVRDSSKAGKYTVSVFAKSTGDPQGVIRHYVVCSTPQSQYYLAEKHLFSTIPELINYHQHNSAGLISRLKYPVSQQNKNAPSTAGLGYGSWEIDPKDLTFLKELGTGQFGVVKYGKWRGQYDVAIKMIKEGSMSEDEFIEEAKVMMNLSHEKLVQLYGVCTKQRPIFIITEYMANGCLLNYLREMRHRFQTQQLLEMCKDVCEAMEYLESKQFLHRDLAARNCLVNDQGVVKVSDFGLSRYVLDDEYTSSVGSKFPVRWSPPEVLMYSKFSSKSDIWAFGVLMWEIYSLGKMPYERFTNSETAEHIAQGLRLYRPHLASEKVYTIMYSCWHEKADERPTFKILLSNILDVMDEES
Chain of BMX (P51813 whole entry): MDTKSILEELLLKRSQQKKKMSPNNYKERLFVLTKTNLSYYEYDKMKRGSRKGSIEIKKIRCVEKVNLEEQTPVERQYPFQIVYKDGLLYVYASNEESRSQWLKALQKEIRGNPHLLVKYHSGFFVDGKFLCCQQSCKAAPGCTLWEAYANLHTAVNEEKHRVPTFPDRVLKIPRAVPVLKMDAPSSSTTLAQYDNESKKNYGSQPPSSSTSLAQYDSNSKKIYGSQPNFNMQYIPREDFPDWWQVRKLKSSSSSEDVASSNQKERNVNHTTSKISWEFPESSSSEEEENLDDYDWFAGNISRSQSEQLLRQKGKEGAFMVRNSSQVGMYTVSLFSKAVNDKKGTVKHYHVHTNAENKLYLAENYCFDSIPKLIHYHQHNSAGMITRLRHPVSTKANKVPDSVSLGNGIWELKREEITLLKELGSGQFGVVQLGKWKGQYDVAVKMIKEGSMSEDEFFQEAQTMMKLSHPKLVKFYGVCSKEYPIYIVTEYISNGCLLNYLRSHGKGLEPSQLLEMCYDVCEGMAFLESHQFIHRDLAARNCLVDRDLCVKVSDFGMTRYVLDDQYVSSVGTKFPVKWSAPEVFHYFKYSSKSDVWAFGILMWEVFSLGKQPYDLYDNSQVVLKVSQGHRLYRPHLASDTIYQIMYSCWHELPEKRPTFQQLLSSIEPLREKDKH
Chain of EGFR (P00533 25-1210): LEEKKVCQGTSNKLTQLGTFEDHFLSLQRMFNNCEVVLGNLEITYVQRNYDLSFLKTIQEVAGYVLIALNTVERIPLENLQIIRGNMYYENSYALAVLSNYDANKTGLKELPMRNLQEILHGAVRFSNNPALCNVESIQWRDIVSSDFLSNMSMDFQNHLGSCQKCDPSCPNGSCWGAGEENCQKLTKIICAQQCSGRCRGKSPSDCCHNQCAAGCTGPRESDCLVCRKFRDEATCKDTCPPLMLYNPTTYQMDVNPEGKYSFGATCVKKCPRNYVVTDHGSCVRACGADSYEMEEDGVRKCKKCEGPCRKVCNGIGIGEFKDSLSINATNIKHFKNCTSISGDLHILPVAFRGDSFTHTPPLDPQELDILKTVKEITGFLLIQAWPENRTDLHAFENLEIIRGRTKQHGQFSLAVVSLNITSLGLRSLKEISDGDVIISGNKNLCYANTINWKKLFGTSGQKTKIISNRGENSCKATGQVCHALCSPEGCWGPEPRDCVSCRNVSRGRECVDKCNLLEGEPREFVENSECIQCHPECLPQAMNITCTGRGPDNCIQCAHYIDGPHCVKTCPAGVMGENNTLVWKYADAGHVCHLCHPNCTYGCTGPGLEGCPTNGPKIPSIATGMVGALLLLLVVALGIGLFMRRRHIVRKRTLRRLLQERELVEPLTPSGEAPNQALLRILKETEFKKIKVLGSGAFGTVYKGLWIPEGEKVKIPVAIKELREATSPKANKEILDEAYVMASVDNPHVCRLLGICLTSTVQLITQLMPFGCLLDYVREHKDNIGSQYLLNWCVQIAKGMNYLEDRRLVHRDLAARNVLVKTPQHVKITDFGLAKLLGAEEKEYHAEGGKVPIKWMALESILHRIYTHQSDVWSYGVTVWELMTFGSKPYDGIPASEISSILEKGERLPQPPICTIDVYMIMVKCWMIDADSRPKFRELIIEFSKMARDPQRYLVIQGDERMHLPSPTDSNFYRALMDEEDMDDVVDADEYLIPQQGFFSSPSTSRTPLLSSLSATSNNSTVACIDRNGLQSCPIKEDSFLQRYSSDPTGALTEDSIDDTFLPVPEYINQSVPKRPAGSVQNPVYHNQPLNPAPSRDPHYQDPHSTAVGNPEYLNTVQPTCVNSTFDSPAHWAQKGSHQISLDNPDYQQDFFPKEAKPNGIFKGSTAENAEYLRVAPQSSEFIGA
Chain of JAK3 (P52333 781-1124): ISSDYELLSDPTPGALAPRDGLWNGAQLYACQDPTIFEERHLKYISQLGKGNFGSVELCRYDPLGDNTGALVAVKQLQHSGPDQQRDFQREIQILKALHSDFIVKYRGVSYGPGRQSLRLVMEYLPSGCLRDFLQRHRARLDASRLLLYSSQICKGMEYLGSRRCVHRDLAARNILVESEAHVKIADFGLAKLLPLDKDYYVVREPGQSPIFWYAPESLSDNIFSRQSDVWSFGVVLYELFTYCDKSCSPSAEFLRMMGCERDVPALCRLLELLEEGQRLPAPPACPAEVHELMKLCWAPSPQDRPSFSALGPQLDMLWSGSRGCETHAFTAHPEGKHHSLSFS
Chain of RIPK2 (O43353 whole entry, species assumed): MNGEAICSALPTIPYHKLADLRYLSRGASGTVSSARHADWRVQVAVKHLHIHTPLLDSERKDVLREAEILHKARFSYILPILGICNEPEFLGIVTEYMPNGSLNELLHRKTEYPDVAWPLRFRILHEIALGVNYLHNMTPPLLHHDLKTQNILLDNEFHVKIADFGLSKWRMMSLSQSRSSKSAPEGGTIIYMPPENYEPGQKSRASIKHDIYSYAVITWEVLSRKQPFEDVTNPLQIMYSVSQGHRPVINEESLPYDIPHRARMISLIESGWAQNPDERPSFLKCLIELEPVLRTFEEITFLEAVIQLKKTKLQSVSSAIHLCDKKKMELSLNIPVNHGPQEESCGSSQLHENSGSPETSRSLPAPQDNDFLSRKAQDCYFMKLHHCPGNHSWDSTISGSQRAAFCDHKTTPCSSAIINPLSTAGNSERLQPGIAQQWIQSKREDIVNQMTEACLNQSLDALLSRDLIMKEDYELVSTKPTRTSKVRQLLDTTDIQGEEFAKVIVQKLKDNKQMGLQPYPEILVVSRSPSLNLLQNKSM

For `C[S+]([O-])c1c(F)c(F)c(F)c(F)c1C(=O)N1CCC[C@@H](n2nc(-c3ccc(Oc4ccccc4)cc3)c3c(N)ncnc32)C1` (stereo partly drawn) [Compound I-36, ((R)-3-(4-amino-3-(4-phenoxyphenyl)-1H-pyrazolo[3,4-d]pyrimidin-1-yl)piperidin-1-yl)(2,3,4,5-tetrafluoro-6-(methylsulfinyl)phenyl)methanone], the “% BTK degradation (RAMOS, 24 h)” value in assay [1] was “Y”. Moreover, the remaining activity at 1 µM in assay [2] is over 90%; in assay [3], over 90%; in assay [4], under 50%; in assay [5], over 90%; in assay [6], under 50%; in assay [7], over 90%. Further, the remaining activity at 10 µM in assay [2] was under 50%; in assay [3] it was 50 to 90%; in assay [4], under 50%; in assay [5] it was over 90%; in assay [6], under 50%; in assay [7] it was over 90%. The IC50 in assay [4] was under 1000 nM.
Turning to `Nc1ncnc2c1c(-c1ccc(Oc3ccccc3)cc1)nn2CCNC(=O)c1c(F)c(F)c(F)c(F)c1S(N)(=O)=O` [Compound I-42, N-(2-(4-amino-3-(4-phenoxyphenyl)-1H-pyrazolo[3,4-d]pyrimidin-1-yl)ethyl)-2,3,4,5-tetrafluoro-6-sulfamoylbenzamide], the “% BTK degradation (RAMOS, 24 h)” value in assay [1] is “Y”. The remaining activity at 1 µM in assay [2] is 50 to 90%; in assay [3], over 90%; in assay [4], under 50%; in assay [5] it was over 90%; in assay [6], under 50%; in assay [7], 50 to 90%. Moreover, the remaining activity at 10 µM in assay [2] is 50 to 90%; in assay [3], 50 to 90%; in assay [4], 50 to 90%; in assay [5] it was over 90%; in assay [6], under 50%; in assay [7] it was under 50%. Besides, the IC50 in assay [4] and in assay [6] (dose response) was under 1000 nM each time.
